≈ marks a conversion by molar mass, not a printed value. Where two headings read alike, the source gives them in different places.
System: Cholesterol Synthesis in Isolated Rat Hepatocytes
Assay: Rat hepatocyte cholesterol biosynthesis model (14C-acetate incorporation into digitonin-precipitable sterols)
Type: cell-based
Conditions: for inhibition at 125 µg/mL / inhibition at 250 µg/mL / inhibition at 500 µg/mL / IC50: Rattus norvegicus, Hepatocyte, 45 min preincubation, 30 min incorporation
Protocol: Primary rat parenchymal hepatocytes were prepared from male Wistar rats (180-220 g) at mid-dark in the diurnal cycle by standard collagenase perfusion method as described previously. Ingebritsen et al. J. Biol. Chem., 254: 9986-9989, (1979). Aliquots of cells were suspended (100 mg in 2 ml) in Eagle's minimum essential medium (MEM) supplemented with 2% bovine albumin, and preincubated in a shaking water bath at about 37° under 95% O₂/5% CO₂ with compounds added as given in the data. […] Following a preincubation of about 15 to about 45 minutes as indicated, cholesterol synthesis in intact cells was assayed by 2-14C-acetate (1.8 mCi/mmol, 0.5 µCi/ml) incorporation for about 30 to about 60 minutes (previously shown to be time-linear) into total digitonin-precipitable sterols. […] Percent inhibition was calculated from the average of duplicates vs. triplicate vehicle controls conducted simultaneously.
The primary rat hepatocyte assay for cholesterol bio-synthesis inhibition was conducted as described in Example 2 except the preincubation was about 45 minutes and the 14C-acetate incorporation was about 30 minutes. The indicated compounds were purified from the same natural product source as the mixture used in Example 2. […] Two-component mixtures of the constituents separated from the tocotrienol mixture were tested under the conditions indentical to Table 2A.

Compound CC(C)=CCC/C(C)=C/CC/C(C)=C/CC[C@]1(C)CCc2cc(O)c(C)c(C)c2O1 [d-γ-tocotrienol] has an inhibition at 125 µg/mL (read-out: % Inhibition at µg/ml conc: 125, 125 µg/ml, Expt. # 2) of 28%, an inhibition at 250 µg/mL (read-out: % Inhibition at µg/ml conc: 250, 250 µg/ml, Expt. # 1) of 48% and an inhibition at 250 µg/mL (read-out: % Inhibition at µg/ml conc: 250, 250 µg/ml, Expt. # 2) of 34%. It also gave an inhibition at 500 µg/mL (read-out: % Inhibition at µg/ml conc: 500, 500 µg/ml, Expt. # 1) of 60%, an inhibition at 500 µg/mL (read-out: % Inhibition at µg/ml conc: 500, 500 µg/ml, Expt. # 2) of 61% and an IC50 (read-out: IC₅₀, Expt. # 1) of 270 µg/mL (≈ 658 µM). For the same compound, the IC50 (read-out: IC₅₀, Expt. # 2) was 360 µg/mL (≈ 877 µM).

CC(C)=CCC/C(C)=C/CC/C(C)=C/CC[C@]1(C)CCc2cc(O)cc(C)c2O1 [d-δ-tocotrienol] showed an inhibition at 125 µg/mL (125 µg/ml, Expt. # 2, read-out: % Inhibition at µg/ml conc: 125) of 26%, an inhibition at 250 µg/mL (250 µg/ml, Expt. # 1, read-out: % Inhibition at µg/ml conc: 250) of 49% and an inhibition at 250 µg/mL (250 µg/ml, Expt. # 2, read-out: % Inhibition at µg/ml conc: 250) of 33%. The inhibition at 500 µg/mL (500 µg/ml, Expt. # 1, read-out: % Inhibition at µg/ml conc: 500) was 62%, the inhibition at 500 µg/mL (500 µg/ml, Expt. # 2, read-out: % Inhibition at µg/ml conc: 500) was 63% and the IC50 (Expt. # 1, read-out: IC₅₀) was 260 µg/mL (≈ 656 µM). For the same compound, the IC50 (Expt. # 2, read-out: IC₅₀) was 340 µg/mL (≈ 857 µM) and the “times more active than alpha-tocotrienol” value (rat and chicken hepatocyte system) was “at least 5 times”.
